# Laboratory results taken from article PMC9385959, “Mammalian derived lipocalin and secretoglobin respiratory allergens strongly bind ligands with potentially immune modulating properties” (Frontiers in Allergy, 2022).
# Values joined by “and” are separate entries in the source; they are usually repeats but may differ in a detail not shown here. Identical values can stand only once. Like-named read-outs stand apart in the source and are kept apart here.
# Tests used:
# [1] = Thermal stability by circular dichroism spectroscopy with temperature ramping; format: physicochemical; conditions: temperature ramping 20–95°C, 10 μmol/L protein
# Experimental: Secondary protein structure formation and thermal stability of the recombinant proteins were determined by circular dichroism (CD) spectroscopy. Recombinant proteins were diluted with ultrapure water to a concentration of 10 μmol/L in a volume of 300 μL to measure their CD spectra using the Chirascan CD spectrometer (Applied Photophysics). Far-ultraviolet CD spectra were recorded at 180–260 nm (0.8 nm bandwidth, 0.4 s interval, 3 repeats) in a cuvette of 0.1 cm path length. Thermal sensitivity was assessed by ramping temperatures (20–95°C) with an internal temperature probe and continuous CD-signal measurements (ramping rate 0.82°C per minute, no repeats). After 10 min at 95°C another CD spectrum was recorded with 3 repeats, then the temperature was decreased back to 20°C for a final scan with 3 repeats to analyze the refolding capacity. The read-out was converted with respective protein details, such as molecular weight and number of amino acids, into degrees^*cm2^*dmol−1. Chirascan Global 3 Analysis Software (Applied Photophysics) and DichroWeb online server ([36]) with solutions from the CDSSTR method and reference data set 7 ([37]) were used to analyze and interpret CD spectra, measured as a function of temperature.
# [2] = molecular target: T1, Fel d 1 (Felis catus, UniProt P30438+P30440); assay: Fluorochrome binding to Fel d 1 (emission spectra and titration); set-up: species or system cat; conditions: for Increase of fluorescence intensity upon binding: 5 μM Fel d 1 with 5 μM fluorochrome
# T1 construct: polyhistidine tag (C); made in house; host or cells: E. coli Rosetta-gami 2
# T1 sequence (P30438+P30440 with tags, fused parts or gaps): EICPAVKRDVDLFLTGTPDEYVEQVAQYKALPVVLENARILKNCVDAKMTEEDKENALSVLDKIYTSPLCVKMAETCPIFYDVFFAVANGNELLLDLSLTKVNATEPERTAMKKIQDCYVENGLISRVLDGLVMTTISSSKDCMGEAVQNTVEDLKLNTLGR
# Experimental: (§1) Stock solutions were prepared at a concentration of 10 mM in 100% ethanol for the fluorochromes 1-aminoanthracene (1-AMA), 8-anilino-1-naphthalensulfonic acid (1,8-ANS) and for all ligands, and in 100% methanol for n-phenyl-1-naphthylamine (1-NPN), respectively. Iron catecholate ligands (siderophores) were prepared as previously described ([46]). Fluorochrome-protein complexes were analyzed at an equimolar concentration of 5 μM in PBS with 5% ethanol in a volume of 100 μL per well in black 96-well non-binding microplates (Greiner Bio-One GmbH, Frickenhausen, Germany). Solutions containing only protein or the respective fluorescent probe in PBS with 5% ethanol served as controls. Fluorochrome-protein complexes were incubated with orbital shaking for 10 min at 500 rpm at room temperature (RT) before measurement using the fluorescence reader TECAN Infinite 200 Pro (Tecan Trading AG, Switzerland). Excitation wavelengths were fixed at 380 nm for 1-AMA and 1,8-ANS, and 337 nm for 1-NPN. Fluorescence emission spectra were recorded in 5 nm steps between 420 and 560 nm for 1-AMA and 1,8-ANS and between 380 and 500 nm for 1-NPN. The establishment of fluorescent quenching assay parameters for each allergen is explained in the results Section Fluorescence-quenching assay set up. Binding affinities were analyzed by non-linear regression in GraphPad Prism Version 9.3.1 (GraphPad Software, LLC). For the ligand competition assays, ligands were added to fluorochrome-allergen complexes with a final buffer composition of 5% ethanol in PBS in a volume of 100 μL and incubated for 30 min at 500 rpm at RT and further equilibrated for another 30 min without shaking before fluorescence measurement.
# (§2) We established four specific parameters for each allergen to set up a fluorescence quenching assay for screening a large array of potential ligands: (i) a compatible fluorochrome, (ii) the optimal emission wavelength to analyze the fluorescence intensities of the fluorochrome-allergen complex, (iii) the binding affinities of the fluorochrome-allergen complex (Kd values) and (iv) optimal fluorochrome concentrations (EC50 values).
# (§3) For each allergen, we identified a suitable fluorescence probe by adding equimolar concentrations of either 1-AMA or 1,8-ANS to the recombinant proteins. […] 1-AMA was chosen for the guinea pig lipocalin Cav p 1 isoallergens, rabbit lipocalin Ory c 2, and rabbit secretoglobin Ory c 3. Fluorescence intensities increased 20–60-fold upon binding. While the emission maxima shifted from 565 to 485 nm for lipocalin fluorochrome-allergen pairs, the blue shift was less pronounced for the Ory c 3 secretoglobin-1-AMA complex to 505 nm (Figure 4B). […] Respective Kd were calculated after background subtraction (Figure 4B). As ethanol gave a high background with 1-NPN, these experiments were carried out with methanol to reduce the signal-to-noise-ratio.
# (§4) We evaluated the binding affinities of the fluorochromes to the allergens by dose-dependent titration curves. Increasing fluorochrome concentrations were added to a fixed protein concentration of 5 μM until saturation (Figure 5). Fluorescence intensities were recorded at specific emission maxima for each fluorochrome-allergen complex, determined using the emission spectra shown in Figure 4. We analyzed the specific binding of fluorochrome-allergen complexes by non-linear regression and calculated equilibrium dissociation constants (Kd) and EC50 values (Table 2). EC50 values are equal to fluorochome concentrations in which half of the allergen binding sites are saturated and these concentrations were used in subsequent ligand competition assays. We chose a one-site specific binding model for all allergens, except for human LCN1, where multiple binding site analysis emerged as the model of best fit and two Kd values were calculated. Evidence for internal and external binding sites for 1,8-ANS and LCN1 were already reported ([58]).
# [3] = molecular target: T2, Can f 6 (Canis lupus familiaris, UniProt H2B3G5); assay: Fluorochrome binding to Can f 6 (emission spectra and titration); set-up: species or system dog; conditions: for Increase of fluorescence intensity upon binding: 5 μM Can f 6 with 5 μM fluorochrome
# T2 construct: polyhistidine tag (C); made in house; host or cells: E. coli Rosetta-gami 2
# T2 sequence (H2B3G5 16-190): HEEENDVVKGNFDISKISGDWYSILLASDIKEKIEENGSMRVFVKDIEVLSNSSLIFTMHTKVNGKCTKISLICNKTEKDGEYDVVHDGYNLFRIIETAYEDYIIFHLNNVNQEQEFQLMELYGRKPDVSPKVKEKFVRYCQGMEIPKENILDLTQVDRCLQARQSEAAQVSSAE
# Experimental: as §1, §2, §3, §4
# [4] = molecular target: T3, Fel d 4 (Felis catus, UniProt Q5VFH6); assay: Fluorochrome binding to Fel d 4 (emission spectra and titration); set-up: species or system cat; conditions: for Increase of fluorescence intensity upon binding: 5 μM Fel d 4 with 5 μM fluorochrome
# T3 construct: polyhistidine tag (C); made in house; host or cells: E. coli Rosetta-gami 2
# T3 sequence (Q5VFH6 16-186): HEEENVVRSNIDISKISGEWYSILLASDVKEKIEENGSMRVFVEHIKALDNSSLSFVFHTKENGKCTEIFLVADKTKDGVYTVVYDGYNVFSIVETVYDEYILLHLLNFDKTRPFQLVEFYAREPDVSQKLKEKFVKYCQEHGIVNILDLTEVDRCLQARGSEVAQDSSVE
# Experimental: as §1, §2, §3, §4
# [5] = molecular target: Cav p 1.0101 (Cavia porcellus, UniProt A0A484HM70, S19A); assay: Fluorochrome binding to Cav p 1.0101 (emission spectra and titration); set-up: species or system guinea pig; conditions: 5 μM Cav p 1.0101
# Experimental: as §1, with “For the ligand competition assays, ligands were added to fluorochrome-allergen complexes with a final buffer composition of 5% ethanol in PBS in a volume of 100 μL and incubated for 30 min at 500 rpm at RT and further equilibrated for another 30 min without shaking before fluorescence measurement.” left out
# [6] = molecular target: Ory c 2; assay: Fluorochrome binding to Ory c 2 (emission spectra and titration); set-up: species or system rabbit
# Experimental: as §1, with “measurement. […]” for “measurement.”
# (§5) For each allergen, we identified a suitable fluorescence probe by adding equimolar concentrations of either 1-AMA or 1,8-ANS to the recombinant proteins. […] Fluorescence intensities increased 20–60-fold upon binding. […] Respective Kd were calculated after background subtraction (Figure 4B). […]
# (§6) We evaluated the binding affinities of the fluorochromes to the allergens by dose-dependent titration curves. […]
# [7] = molecular target: Cav p 1.0201 (Cavia porcellus, UniProt A0A484HRI4); assay: Fluorochrome binding to Cav p 1.0201 (emission spectra and titration); set-up: species or system guinea pig; conditions: 5 μM Cav p 1.0201
# Experimental: as §1, with “For the ligand competition assays, ligands were added to fluorochrome-allergen complexes with a final buffer composition of 5% ethanol in PBS in a volume of 100 μL and incubated for 30 min at 500 rpm at RT and further equilibrated for another 30 min without shaking before fluorescence measurement.” left out
# [8] = molecular target: Ory c 3 (Oryctolagus cuniculus, UniProt Q9GK63+Q9GK67); assay: Fluorochrome binding to Ory c 3 (emission spectra and titration); set-up: species or system rabbit; conditions: 5 μM Ory c 3
# Experimental: as §1, with “For the ligand competition assays, ligands were added to fluorochrome-allergen complexes with a final buffer composition of 5% ethanol in PBS in a volume of 100 μL and incubated for 30 min at 500 rpm at RT and further equilibrated for another 30 min without shaking before fluorescence measurement.” left out
# [9] = molecular target: T4, human LCN1 (Homo sapiens, UniProt P31025); assay: Fluorochrome binding to LCN1 (emission spectra and titration); conditions: for Kd: multiple binding site analysis
# T4 construct: made in house; host or cells: E. coli Rosetta-gami 2(DE3)
# Experimental: as §1, §2
# as §3, with “As ethanol gave a high background with 1-NPN, these experiments were carried out with methanol to reduce the signal-to-noise-ratio.” left out
# We evaluated the binding affinities of the fluorochromes to the allergens by dose-dependent titration curves. […] Fluorescence intensities were recorded at specific emission maxima for each fluorochrome-allergen complex, determined using the emission spectra shown in Figure 4. We analyzed the specific binding of fluorochrome-allergen complexes by non-linear regression and calculated equilibrium dissociation constants (Kd) and EC50 values (Table 2). […] We chose a one-site specific binding model for all allergens, except for human LCN1, where multiple binding site analysis emerged as the model of best fit and two Kd values were calculated. […]
# [10] = molecular target: T5, Can f 1 (Canis lupus familiaris, UniProt O18873); assay: Fluorochrome binding to Can f 1 (emission spectra and titration); set-up: species or system dog
# T5 construct: made in house; host or cells: E. coli Rosetta-gami 2(DE3)
# Experimental: as §1, with “measurement. […]” for “measurement.”
# as §5, §6
# [11] = one-site specific binding, read-out: Fluorochrome dissociation constant Kd
# [12] = read-out: EC50 fluorochrome concentration
# T4 sequence (P31025 19-176): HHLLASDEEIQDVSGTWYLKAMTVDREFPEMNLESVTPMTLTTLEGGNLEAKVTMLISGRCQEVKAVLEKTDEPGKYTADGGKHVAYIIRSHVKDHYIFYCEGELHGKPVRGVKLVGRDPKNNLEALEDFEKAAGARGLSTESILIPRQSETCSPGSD
# T5 sequence (O18873 19-174): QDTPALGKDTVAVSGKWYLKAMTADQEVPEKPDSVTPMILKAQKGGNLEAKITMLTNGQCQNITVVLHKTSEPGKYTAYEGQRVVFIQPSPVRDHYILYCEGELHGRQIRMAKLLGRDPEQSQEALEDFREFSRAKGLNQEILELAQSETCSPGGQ
# Sequence of Cav p 1.0101 (A0A484HM70 entry or part of it S19A): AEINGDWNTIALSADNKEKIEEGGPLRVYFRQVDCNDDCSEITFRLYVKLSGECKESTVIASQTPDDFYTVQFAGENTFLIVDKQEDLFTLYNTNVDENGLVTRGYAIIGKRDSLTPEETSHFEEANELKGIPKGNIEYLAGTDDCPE
# Sequence of Cav p 1.0201 (A0A484HRI4 entry or part of it): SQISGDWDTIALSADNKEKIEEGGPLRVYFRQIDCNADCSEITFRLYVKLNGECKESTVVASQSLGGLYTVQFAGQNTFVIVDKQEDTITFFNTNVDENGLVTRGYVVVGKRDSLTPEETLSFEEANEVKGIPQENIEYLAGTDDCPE
# Sequence of Ory c 3 (Q9GK67 entry or part of it): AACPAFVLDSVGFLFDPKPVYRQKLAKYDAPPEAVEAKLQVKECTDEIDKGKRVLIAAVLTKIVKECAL
# Sequence of Ory c 3 (Q9GK63 entry or part of it): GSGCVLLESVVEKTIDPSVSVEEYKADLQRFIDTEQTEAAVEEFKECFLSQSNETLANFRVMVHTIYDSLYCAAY
molecule,measurement,setting,value
"LCN1: recombinant human lipocalin-1 (tear lipocalin, von Ebner's gland protein), non-allergenic control, produced in E. coli",Melting point,[1],74.8 ± 0.2 C°
"c1ccc(Nc2cccc3ccccc23)cc1 [1-NPN, n-phenyl-1-naphthylamine]",EC50,[2],21.1 µM
same,Kd,[2],35.5 µM
same,Increase of fluorescence intensity upon binding,[2],2–3 fold
same,Kd,"[3]; 5 μM Can f 6, Figure 5C, read-out: Kd, one-site fit model of total and non-specific binding",59.9 µM
same,Kd,"[3]; 5 μM Can f 6, one-site specific binding, read-out: Fluorochrome dissociation constant Kd",34.9 µM
same,EC50,"[3]; 5 μM Can f 6, read-out: EC50 fluorochrome concentration",20.7 µM
same,Increase of fluorescence intensity upon binding,[3],2–3 fold
same,Kd,"[4]; 5 μM Fel d 4, one-site specific binding, read-out: Fluorochrome dissociation constant Kd",81.7 µM
same,EC50,"[4]; 5 μM Fel d 4, read-out: EC50 fluorochrome concentration",28 µM
same,Increase of fluorescence intensity upon binding,[4],2–3 fold
"Nc1cccc2cc3ccccc3cc12 [1-AMA, 1-aminoanthracene]",Increase of fluorescence intensity upon binding,[2],negligible interactions
same,Kd,[5]; [11],6.57 µM and 6.6 µM
same,EC50,[5]; [12],4.95 µM and 5 µM
same,Kd,"[6]; 5 μM Ory c 2, one-site specific binding, read-out: Fluorochrome dissociation constant Kd",5.7 µM
same,EC50,"[6]; 5 μM Ory c 2, read-out: EC50 fluorochrome concentration",4.2 µM
same,Increase of fluorescence intensity upon binding,"[6]; 5 μM Ory c 2 with 5 μM fluorochrome, range stated for four allergens together",20–60 fold
same,Kd,[7]; [11],13.9 µM
same,EC50,[7]; [12],9.2 µM
same,Kd,[8]; [11],9 µM
same,EC50,[8]; [12],6.9 µM
same,Increase of fluorescence intensity upon binding,[3],neither reacted
same,Increase of fluorescence intensity upon binding,[4],neither reacted
"CN(C)c1cccc2c(S(=O)(=O)NCCCCCCCCCCC(=O)O)cccc12 [DAUDA, 11-(Dansylamino)undecanoic acid]",Increase of fluorescence intensity upon binding,[3],neither reacted
same,Increase of fluorescence intensity upon binding,[4],neither reacted
"O=S(=O)(O)c1cccc2cccc(Nc3ccccc3)c12 [1,8-ANS, 8-anilino-1-naphthalensulfonic acid]",Kd,"[2]; 5 μM Fel d 1, one-site specific binding, read-out: Fluorochrome dissociation constant Kd",149 µM
same,EC50,"[2]; 5 μM Fel d 1, read-out: EC50 fluorochrome concentration",99.8 µM
same,Increase of fluorescence intensity upon binding,[2],8 fold
same,Kd,"[9]; 5 μM LCN1, first binding site, read-out: Fluorochrome dissociation constant Kd",5 µM
same,Kd,"[9]; 5 μM LCN1, second binding site, read-out: Fluorochrome dissociation constant Kd, second binding site",64.7 µM
same,EC50,"[9]; 5 μM LCN1, read-out: EC50 fluorochrome concentration",7.1 µM
same,Increase of fluorescence intensity upon binding,[9]; 5 μM LCN1 with 5 μM fluorochrome,> 100 fold
same,Kd at the second binding site relative to the first (higher Kd),[9]; LCN1,13 fold
same,EC50,"[10]; 5 μM Can f 1, half of the allergen binding sites saturated, read-out: EC50 fluorochrome concentration",6.4 µM
same,Kd,"[10]; 5 μM Can f 1, one-site specific binding, read-out: Fluorochrome dissociation constant Kd",6.8 µM
same,Increase of fluorescence intensity upon binding,[10]; 5 μM Can f 1 with 5 μM fluorochrome,> 100 fold
same,Increase of fluorescence intensity upon binding,[3],neither reacted
same,Increase of fluorescence intensity upon binding,[4],neither reacted
